Laboratory results: patent publication EP0579804B1, “BIOLOGICAL ARTIFICIAL LIVER” (MONSANTO COMPANY, priority 1992, dated 1993)

Tested on: Hepatocytes
Assay: extracorporeal hepatic metabolism in the hepatocyte bioreactor attached to an ahepatic pig
Format: in vitro ADME, outbred Yorkshire/white pig
Conditions: administered into the ultrafiltrate at the inlet of the bioreactor; metabolites 7-OH-coumarin and monoethylglycinexylidide (MEGX) measured at the outlets of the bioreactors
Method: The medium used was the hormone-supplemented Waymouth medium as described in Example 1. To accommodate 2 to 5 billion cells, the bioreactor was scaled up to two containment vessels, each with an internal diameter of 40 mm and a height of 100 mm. Glass beads of approx. 2 mm diameter and a total volume of 250 ml per containment vessel were used. Medium was perfused at a recycle rate of 360 ml/min.. […] The bioreactor was attached to an ahepatic pig (liver removed by surgery to mimic total hepatic failure) at approx. 2 hrs. after hepatocyte inoculation. Blood from the left femoral artery was directed into a Minntech hemoconcentrator. A 12 fringe elecath canula was inserted into the femoral artery and connected to a 1/4" PVC tubing to the hemoconcentrator. The hemoconcentrator separated the blood into a cell free ultrafiltrate fraction, and a blood cell fraction. The blood cell fraction was returned to the femoral vein via a similar tubing. The ultrafiltrate exited the hemoconcentrator via a 1/4" PVC tubing and entered the hepatocyte bioreactor system with the flow rate adjusted to 40 ml/min. using a roller pump. […] The respective metabolites, 7-OH-coumarin and monoethylglycinexylidide (MEGX), were measured at the outlets of the bioreactors before the ultrafiltrate was returned to the animal.

## CCOc1ccc2ccc(=O)oc2c1 [7-ethoxycoumarin]
  metabolism: Significant metabolism
